# Laboratory results published in patent US20180360799A1, “Nitrofuran Derivatives That Induce Apoptosis in Breast Cancer Cells by Activating Protein Expression” (Oklahoma Medical Research Foundation, priority 2015, published 2018).
# Key:
# HCC-1806 cells [1] = test: Cell viability, CellTiter-Glo, HCC-1806; format: cell-based; conditions: Homo sapiens, HCC1806, 72 h; Table 2; cancer cell viability, 3 d treatment; read-out: HCC-1806 IC50
# Method: Given the known functions of CHOP in ER stress-induced apoptosis^16, 17 and in regulating cancer cell death,^6, 19, 20 the inventor investigated whether compound 1 affects the viability of TNBC cells. Three human TNBC cell lines, HCC-1806, HCC-1143, and HCC-38, were treated with doses of 1 ranging from 0.125 μM to 20 μM and their viability was assessed using the CellTiter-Glo assay, which measures intracellular ATP levels.
# HCC-1806, HCC-1143, or HCC-38 cells were seeded at 3×10^3 cells/well in a 384-well plate and treated with compounds at the indicated concentrations. After 3 d treatment, the medium was aspirated and 20 μL/well of CellTiter-Glo reagent was added. Cell viability was measured with an EnVision multilabel plate reader. The IC50 value for cell viability of each compound was calculated with GraphPad Prism (La Jolla, Calif., US).
# HCC-1806 cells [2] = test: Live-cell phase-contrast microscopy of HCC-1806 cells; format: cell-based, human; conditions: near confluent HCC-1806, 10 μM, 24 h
# Method: FIG. 2A is an image showing apoptosis of HCC-1806 cells after treatment with a 5-nitrofuran-2-amide derivative compound 3d (above). Cells were treated with 3d (10 μM) for the indicated times, and cleavage of caspase-3 was determined by Western blotting. α-Tubulin was used as a loading control. The data shown are representative of 3 independent studies. FIGS. 2B and 2C are live-cell phase-contrast images (magnification 10×) showing treatment with DMSO and (10 μM) 5-nitrofuran-2-amide derivative compound 3d respectively for 24 h. To determine whether the reduction in TNBC cell viability by the 5-nitrofuran-2-amide derivatives was due to the induction of apoptosis, the inventor analyzed cleavage of caspase-3, a critical executioner of apoptosis, in HCC-1806 cells treated with compound 3d. […] To confirm this, HCC-1806 cells were cultured to near confluence and treated with 10 μM 3d or DMSO for 24 h and then imaged by live-cell phase-contrast microscopy.
# CHOP gene = test: CHOP mRNA by qRT-PCR in HCC-1806 cells; format: cell-based, human
# Method: The results are the means of 4 replicate wells and are representative of 3 independent studies. *P<0.05 and **P<0.01 by Student's t-test compared with cells treated with DMSO (in FIG. 3A) or with 3d for 0 h (in FIG. 3B). […] The results are the means of 4 replicate wells and are representative of 3 independent studies. *P<0.05 and **P<0.01 by Student's t-test compared with cells treated with compound 3d for 0 h. […] Total RNA was extracted using TRIzol reagent (Invitrogen, Carlsbad, Calif.) according to the manufacturer's protocol, and 2 μg of total RNA was reverse transcribed using a Superscript kit (Invitrogen). Real-time PCR was performed in 96-well format using SYBR Select Master Mix (Applied Biosystems, Foster City, Calif.) with an ABI 7500 PCR system (Applied Biosystems). The primer sequences used were: Human CHOP: SEQ ID NO: 1 [NT] and SEQ ID NO: 2 [NT]. Human ATF4: SEQ ID NO: 3 [NT] and SEQ ID NO: 4 [NT]. Human XBP1: SEQ ID NO: 5 [NT] and SEQ ID NO: 6 [NT]. Human Cyclophilin A: SEQ ID NO: 7 [NT] and SEQ ID NO: 8 [NT]. Human GAPDH: SEQ ID NO: 9 [NT] and SEQ ID NO: 10 [NT].
# [3] = test system: XBP1 mRNA splicing (IRE1α pathway); test: XBP1 mRNA splicing by RT-PCR in HCC-1806 cells; format: cell-based, human; conditions: HCC-1806, 3d 10 μM, at 2~24 h (11% at 0 h)
# Method: FIG. 3E is a graph showing XBP1 mRNA levels in HCC-1806 cells treated with tunicamycin or a 5-nitrofuran-2-amide derivative compound 3d. HCC-1806 cells were treated with compound 3d (10 μM) or tunicamycin (Tm, 1 μg/mL) for the indicated times. XBP1 mRNA levels were analyzed by RT-PCR and the products were resolved by agarose gel electrophoresis. The full-length (unspliced, XBP1u) and spliced (XBP1s) forms of XBP1 mRNA are indicated. GAPDH mRNA was used as an internal control.
# The percentage of XBP1s relative to total XBP1 was calculated as: (XBP1s/[XBP1s+XBP1u])×100%. The data shown are representative of 3 independent studies.
# The inventor next asked whether the IRE1α and ATF6 branches of the unfolded protein response were also activated by compound 3d treatment of TNBC cells. […] XBP1 mRNA splicing, as measured by XBP1s levels, increased only slightly in the first 24 h after compound 3d treatment of HCC-1806 cells (from 11% of total XBP1 at 0 h to 15˜20% at 2˜24 h). […] Next, it was determined whether compound 3d activates the ATF6 pathway by evaluating its effect on the activity of an ER stress response elements (ERSE)-Luc reporter stably established in HEK293 cell line. […]
structure (smiles),measurement,setting,value
CC1CCN(c2ccc(NC(=O)c3ccc([N+](=O)[O-])o3)cc2)CC1 [Compound 3d],IC50,HCC-1806 cells [1],2800 nM
same,cell death seen by phase-contrast imaging,HCC-1806 cells [2],few cells were observed
same,"CHOP transcription, time dependence","CHOP gene; HCC-1806, 10 μM, indicated times",increased CHOP transcription in a time-dependent fashion
same,CHOP mRNA levels relative to DMSO-treated cells,"CHOP gene; HCC-1806, dose- and time-dependent studies",up to 9 fold
same,"CHOP mRNA levels, dose dependence","CHOP gene; HCC-1806, indicated concentrations, 8 h",significantly increased CHOP mRNA levels in a dose-dependent manner
same,"XBP1s, percentage of total XBP1",[3],15˜20%
